Data from US20090018162A1, “USE OF 6-(3-CHLORO-2-FLUOROBENZYL)-1-[(2S)-1-HYDROXY-3-METHYLBUTAN-2-YL]-7-METHOXY-4-OXO-1,4-DIHYDROQUINOLINE-3-CARBOXYLIC ACID OR SALT THEREOF FOR TREATING RETROVIRUS INFECTION” (priority 2006, published 2009).

What was measured:
[1] = system: recombinant HIV-1 clones (patient protease/RT sequences in HIV-1 NL4-3); assay: microbe, parasite or virus in culture; assay type: cell-based
in vitro = details: human
human PBMCs = details: 7 days

## C[C@H](Cn1cnc2c(N)ncnc21)OCP(=O)(O)O [TFV, Tenofovir]
[1]; RT mutation 2-5 TAMs, K65 and/or Q151, N=4, averaged
  Fold-increase (EC50 fold increase above reference clone NL4-3): 8.5
[1]; RT mutation 2-5 TAMs, N=16, averaged
  Fold-increase (EC50 fold increase above reference clone NL4-3): 3.5
[1]; RT mutation 2-5 TAMs, T69ins, N=4, averaged
  Fold-increase (EC50 fold increase above reference clone NL4-3): 12.2
[1]; RT mutation 6 TAMS, M184, N=7, averaged
  Fold-increase (EC50 fold increase above reference clone NL4-3): 1.6
[1]; RT mutation 6 TAMs, N=5, averaged
  Fold-increase (EC50 fold increase above reference clone NL4-3): 5.0
[1]; RT mutation K65 and/or Q151, M184, N=12, averaged
  Fold-increase (EC50 fold increase above reference clone NL4-3): 2.2
[1]; RT mutation K65 and/or Q151, N=7, averaged
  Fold-increase (EC50 fold increase above reference clone NL4-3): 4.0
[1]; RT mutation M184, N=12, averaged
  Fold-increase (EC50 fold increase above reference clone NL4-3): 0.6
[1]; Wild-type clones, N=8, averaged
  Fold-increase (EC50 fold increase above reference clone NL4-3): 0.8

## enfuvirtide
In vitro
  CC50 at 7 days: > 10 µM
Human PBMCs
  CC50: > 10 µM
